According to patent US7122651B1, “Nucleic acid molecules encoding opioid growth factor receptors” (priority 1998, dated 2006):

Key:
[1] = biological target: T1, nuclear homogenates of human pancreatic tumor cells (PANC-1) (Homo sapiens, UniProt Q9NZT2); test: Competition for binding of [^3H]-[Met^5]-enkephalin in PANC-1 nuclear homogenates; details: for competition for [^3H][Met^5]-enkephalin binding: 1 or 2 nM radioligand
T1 construct: host or cells: PANC-1; nuclear (P1) homogenates, and P2, P3 and S3 fractions in the fractionation study
T1 sequence (Q9NZT2 1-677): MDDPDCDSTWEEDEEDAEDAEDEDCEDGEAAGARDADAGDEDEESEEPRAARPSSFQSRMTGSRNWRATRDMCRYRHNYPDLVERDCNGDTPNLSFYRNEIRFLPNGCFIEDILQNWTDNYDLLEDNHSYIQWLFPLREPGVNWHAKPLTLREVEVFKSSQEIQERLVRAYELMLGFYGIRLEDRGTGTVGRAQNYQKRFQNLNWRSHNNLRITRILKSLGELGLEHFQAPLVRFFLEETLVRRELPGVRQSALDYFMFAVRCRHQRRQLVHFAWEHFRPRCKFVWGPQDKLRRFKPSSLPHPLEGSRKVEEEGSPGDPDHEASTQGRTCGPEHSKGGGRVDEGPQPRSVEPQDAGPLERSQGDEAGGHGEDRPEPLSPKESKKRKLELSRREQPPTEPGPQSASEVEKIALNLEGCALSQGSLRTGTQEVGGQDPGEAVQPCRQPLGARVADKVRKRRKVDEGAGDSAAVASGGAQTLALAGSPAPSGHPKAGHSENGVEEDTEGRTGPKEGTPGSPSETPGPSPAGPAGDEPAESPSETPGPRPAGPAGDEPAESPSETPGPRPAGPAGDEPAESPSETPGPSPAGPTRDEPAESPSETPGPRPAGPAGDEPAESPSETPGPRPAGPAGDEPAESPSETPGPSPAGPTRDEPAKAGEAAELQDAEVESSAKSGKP
Procedure: Each concentration was run in triplicate and every compound was tested twice.
(§1) Analysis and statistics. Receptor binding data were analyzed with either the Lundon I (Saturation Isotherm Binding Analysis) computer program (Lundon Software, Cleveland, Ohio) or GraphPad Prism software. Both programs utilize nonlinear least-squares regression. Binding isotherms and Scatchard plots were computed directly by the programs. […] Comparisons of Bmax and Kd values were made using analysis of variance and posthoc Newman-Keuls tests.
Competition experiments using 1 or 2 nM [^3H]

[2] = tested on: IEC-6 rat small intestine epithelial cell line; test: Cell number in IEC-6 cultures (trypan blue, hemacytometer); format: cell-based; details: 10^−6 M, 48 hr of exposure, IEC-6 cells
Procedure: FIG. 6 depicts histogram of cell number in cultures of IEC-6 rat intestinal epithelial cells treated for 48 hr with either sterile water (CO), 10^−6 M NTX, 10^−6 M 23-mer S-ODN (antisense), or scrambled oligoprobe (scrambled). Cells (5×10^3) were plated, and compounds and fresh media were added 24 hr and 48 hr later. After 72 hr in culture, cells were trypsinized, stained with trypan blue, and counted with a hemacytometer.
The IEC-6 rat small intestine epithelial cell line (American Type Tissue Culture Collection, Manassas, Va.) were grown in Dulbecco's medium supplemented with 10% fetal calf serum. For experiments, 5×10^3 cells/well in a 24-well plate were seeded and, 24 hr later, 10^−6 M concentrations of the antisense or the scrambled S-ODN were added. Some wells were exposed to 10^−6 NTX or an equivalent volume of sterile water. Media, S-ODNs, or drugs were changed daily. After 72 hr in culture, cells were trypsinized, stained with trypan blue, and counted with a hemacytometer; 3 wells/treatment group were assessed. The data were evaluated with ANOVA, and subsequent comparisons were made with the Newman-Keuls tests.

[3] = tested on: SK-N-AS human neuroblastoma cell line; test: Cell number in SK-N-AS cultures (trypan blue, hemacytometer); format: cell-based; details: 10^−6 M, SK-N-AS cells
Procedure: FIG. 10 depicts histogram of cell number in cultures of SK-N-AS human neuroblastoma cells treated for 48 hr with either sterile water (CO), 10^−6 M NTX, 10^−6 M S-ODN, or scrambled oligonucleotide. Cells (6×10^3) were plated and compounds and fresh media added 24 hr and 48 hr later. After 72 hr in culture, cells were trypsinized, stained with trypan blue, and counted with a hemacytometer.
To study the function of the isolated cDNA with respect to regulation of cell growth, a 23-mer antisense S-ODN (nuclease-resistant phosphorothioate; Oligo, Etc., Bethel, Me.) targeted against a sequence containing the translation initiation site of the OGF binding protein was designed: 5′-[…]-3′ (antisense, SEQ ID NO: 17). A scrambled (control) S-ODN was also designed: 5′-[…]-3′ (SEQ ID NO: 18).
The SK-N-AS human neuroblastoma cell line (American Type Tissue Culture Collection, Manassas, Va.) was grown in Dulbecco's medium supplemented with 10% fetal calf serum. For experimentation, 6×10^3 cells/well in a 24-well plate were seeded and, 24 hr later, 10^−6 M concentrations of the antisense or the scrambled S-ODN was added. […] After 72 hr in culture, cells were trypsinized, stained with trypan blue, and counted with a hemacytometer. Data from the antisense experiments were evaluated with ANOVA, and subsequent comparisons made with the Newman-Keuls tests.

[4] = biological target: T2, PANC-1 nuclear (P1) homogenates (Homo sapiens, UniProt Q9NZT2); test: Binding of [^3H]-[Met^5]-enkephalin to PANC-1 nuclear homogenates (saturation and characterization); details: for Binding, of the optimal binding at 22° C.: 2 nM ligand
T2 construct: host or cells: PANC-1; nuclear (P1) homogenates, and P2, P3 and S3 fractions in the fractionation study
T2 sequence (Q9NZT2 1-677): T1 sequence (Q9NZT2 1-677)
Procedure: (§2) Cell culture. PANC-1, Mia PaCa-2, BxPC-3, and Capan-1 cell lines were obtained from the American Type Culture Collection (Manassas, Va.). […] Panc-1 cells between passages 62–74 were used for the characterization studies.
(§3) Preparation of protein fractions. Cell cultures were harvested by scraping of the flasks, and cells were pelleted by centrifugation. The washed pellet was homogenized (Polytron, setting 5, 2×10 sec) in a 1:20 (wt/vol) solution of cold 50 mM Tris-HCl with 0.1 mg/ml bacitracin, 1 mg/ml leupeptin, 6 nM thiorphan, 1 mM EGTA, and 3.5 mM PMSF (pH 7.4) at 4° C.; this buffer is termed Tris/all.
(§4) Receptor binding assays. Homogenates of nuclear protein were diluted with Tris/all to the appropriate protein concentration and incubated at room temperature (22° C.) for 20 min to remove endogenous peptides. Aliquots of protein were resuspended to 0.95 ml and incubated with agitation with radioactive ligand. […] The final volume of the incubation mixture was 1 ml. Isotope incubation was terminated by rapid filtration through Whatman GF-B filters under vacuum pressure with a Brandel Cell Harvester. Filters were rinsed with ice-cold Tris/all buffer, dried at 60° C. for 1 hr and counted by liquid scintillation spectrometry (Beckman LS-2800). […] Duplicate tubes of homogenates were assayed for each concentration utilized. Protein concentrations were determined by the BioRad method with g-globulin as the standard.
as §1

[5] = biological target: rat OGFr 12-GST fusion protein (cDNA clone #12); test: Saturation binding of [^3H]-[Met^5]-enkephalin to purified rat OGFr GST fusion protein; details: mean±SE, 6 assays, 22° C., 30 min, read-out: binding affinity (Kd)
rat OGFr 12-GST fusion protein (cDNA clone #12), sequence (as listed by the source): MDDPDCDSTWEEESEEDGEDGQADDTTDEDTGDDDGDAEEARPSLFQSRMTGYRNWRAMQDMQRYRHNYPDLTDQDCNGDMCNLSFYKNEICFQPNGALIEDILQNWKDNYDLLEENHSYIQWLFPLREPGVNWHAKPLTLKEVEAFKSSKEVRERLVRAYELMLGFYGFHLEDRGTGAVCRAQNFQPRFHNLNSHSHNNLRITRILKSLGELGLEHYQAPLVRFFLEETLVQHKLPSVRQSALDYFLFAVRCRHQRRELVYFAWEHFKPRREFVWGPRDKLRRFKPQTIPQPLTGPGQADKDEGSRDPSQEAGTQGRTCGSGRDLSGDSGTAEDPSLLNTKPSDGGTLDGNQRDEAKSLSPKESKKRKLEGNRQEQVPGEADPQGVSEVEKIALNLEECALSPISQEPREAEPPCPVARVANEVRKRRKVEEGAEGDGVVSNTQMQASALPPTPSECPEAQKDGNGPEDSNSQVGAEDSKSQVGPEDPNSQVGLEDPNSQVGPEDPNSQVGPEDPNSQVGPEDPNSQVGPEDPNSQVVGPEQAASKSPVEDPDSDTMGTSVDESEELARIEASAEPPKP
Procedure: Fusion proteins (80–120 ng/tube) were incubated for 30 min with shaking at 22° C. […] Binding was terminated by filtering homogenates through Whatman GF/B filters. Saturation isotherms were plotted using GraphPad Prism software (GraphPad Software Inc., San Diego, Calif.).

[6] = biological target: nuclear-enriched fraction of human placenta; test: Binding of radiolabeled [Met^5]-enkephalin to human placenta; details: one-site model, read-out: binding affinity (Kd)
Description: A one-site model of binding was noted.

[7] = biological target: PANC-1 subcellular fractions (P1, P2, P3, S3) (Homo sapiens, UniProt Q9NZT2)
Procedure: For subcellular fractionation studies, the supernatant of P1 was centrifuged at 39,000× g for 30 min to obtain a plasma membrane pellet (P2). The P2 supernatant was centrifuged overnight (100,000× g), resulting in a microsomal pellet (P3) and soluble supernatant (S3). All fractions were inspected for purity by phase-contrast microscopy.
as §4
Sucrose gradient centrifugation was performed to separate the nuclear (P1), membrane (P2), microsomal (P3), and soluble (S3) fractions (Table II).

BxPC-3 nuclear fraction = BxPC-3 nuclear fraction (Homo sapiens, UniProt Q9NZT2); details: BxPC-3, log phase
Procedure: as §2, §3, §4

Capan-1 nuclear fraction = Capan-1 nuclear fraction (Homo sapiens, UniProt Q9NZT2); details: Capan-1, log phase
Procedure: as §2, §3, §4

[8] = biological target: MIA PaCA-2 nuclear fraction (Homo sapiens, UniProt Q9NZT2); details: MIA PaCA-2, log phase
Procedure: as §2, §3, §4

[9] = biological target: Xenografts of Capan-1 growing in nude mice (Homo sapiens, UniProt Q9NZT2); details: Capan-1 xenograft, harvested 40 days after inoculation
Procedure: as §4

[10] = biological target: human pancreatic cancer tissue (Homo sapiens, UniProt Q9NZT2)
Procedure: as §4
Receptor binding assays were performed as stated above.

[11] = biological target: SCCHN enriched nuclear preparations (Homo sapiens, UniProt Q9NZT2)
Description: (§5) Human tissue samples were representative of a variety of squamous cell carcinomas, including specimens from the oral cavity-larynx, and regional metastases. Normal mucosal specimens were obtained during uvu-lopalatopharyngoplasty.

[12] = biological target: normal mucosa enriched nuclear preparations (Homo sapiens, UniProt Q9NZT2); details: normal epithelium
Description: as §5

normal human pancreas = normal human pancreas (Homo sapiens, UniProt Q9NZT2); details: 3 normal specimens
Procedure: Normal tissues (as determined from histological assessment) were obtained from two females and a person. […] Samples were collected and frozen in liquid nitrogen within 1 hr of surgery. Receptor binding assays were performed as stated above.

[13] = optimal conditions, P1 fraction

With `CC[C@]12CCN(CC3CC3)[C@H](C(=O)c3ccc(O)cc31)[C@@H]2C` [EKC, ethylketocyclazocine] as the compound, how does the “competition for [^3H][Met^5]-enkephalin binding” value (from here on “competition”) [1] read?
Its value is “little or no competition”.

Which “elevation of cell number from control cultures” value [2] does the source give for “5′-GACTCAGGGACTTAGCTTCATCC-3′ (DNA, all phosphorothioate, methylation of C not given here) [antisense S-ODN (SEQ ID NO: 15)]” here?
The value was 294%.

With “Dynorphin A1-8 (YGGFLRRI) [κ receptor ligand]” as the compound, how does the “competition” value [1] read?
Its value is “little or no competition”.

What does the source list for `O=C1CC[C@@]2(O)[C@H]3Cc4ccc(O)c5c4[C@@]2(CCN3CC2CC2)[C@H]1O5` [NTX, naltrexone]?
elevation of cell number from control cultures [2]: 223%; growth relative to control cultures ([3]; 48 hr): increased cell growth from control values

`C[C@@H](NC(=O)[C@@H](N)Cc1ccc(O)cc1)C(=O)NCC(=O)N(C)[C@@H](Cc1ccccc1)C(=O)NCCO` [DAMGO, [D-Ala^2, N-Me-Phe^4, Gly^5-ol]-enkephalin] was tested. Which “competition” value [1] did it give?
The value was “little or no competition”.

With DPDPE [[D-Pen^2, Pen^5]-enkephalin] as the compound, how does the “competition” value [1] read?
The value was “little or no competition”.

Which “effect on binding of [^3H]-[Met^5]-enkephalin” value ([4]; 50, 100, or 200 μM) does the source give for `Nc1nc2c(ncn2[C@@H]2O[C@H](COP(=O)(O)OP(=O)(O)NP(=O)(O)O)[C@@H](O)[C@H]2O)c(=O)[nH]1` [GppNHp, guanylylimidodiphosphate] here?
Its value is “not markedly altered”.

With β-endorphin as the compound, how does the IC50/Kd ([1]; competition with [^3H]-[Met^5]-enkephalin, at least 2 independent assays) read?
Its IC50/Kd is >10^−4.

[Met^5]-enkephalin was tested. Which “ability to displace [^3H][Met^5]enkephalin relative to the next ranking compound” value [1] did it give?
Its value is 100 fold.

With [^3H]-[Met^5]-enkephalin as the compound, how does the Kd [5] read?
Its Kd is 2.8 ± 1.1 nM.

And the Kd [6]?
Its Kd is 12.3 ± 3.9 nM.

What about the “time to reach binding equilibrium” value ([4]; 22° C.) of the same compound?
Its value is 60 to 75 min.

And the Bmax ([4]; PANC-1, Table IV, at least 3 independent assays)?
The Bmax was 28.9 ± 6.2 fmol/mg.

What about the Bmax ([4]; PANC-1 Confluent, 5 days in culture) of the same compound?
Its Bmax is 7.8 ± 0.0 fmol/mg protein.

What about the Bmax ([4]; PANC-1 Log phase, 3 days in culture) of the same compound?
The Bmax was 20.7 ± 1.2 fmol/mg protein.

And the Bmax ([4]; PANC-1 Post-confluent, 7–8 days in culture)?
The Bmax was 35.6 ± 0.3 fmol/mg protein.

What about the “effect of length of time in culture on affinity” value ([4]; PANC-1 log phase, confluent, post-confluent) of the same compound?
The value was “no effect”.

What about the “reduction of binding capacity in contrast to post-confluent cells” value ([4]; confluent cultures) of the same compound?
The value was 78%.

What about the “Binding, of the optimal binding at 22° C.” value ([4]; incubation at 0° C.) of the same compound?
Its value is 12%.

And the “Binding, of the optimal binding at 22° C.” value ([4]; incubation at 37° C.)?
Its value is 21%.

And the “reduction of binding capacity in contrast to post-confluent cells” value ([4]; log-phase cultures)?
The value was 42%.

And the “Nonspecific binding, of the total binding” value [4, 13]?
The value was roughly 52%.

What about the “maximal binding capacity (Bmax)” value [4, 13] of the same compound?
Its value is 36.4±4.1 fmol/mg protein.

And the Bmax ([7]; P1 fraction, Nuclear)?
Its Bmax is 21.8±4.8 fmol/mg protein.

What about the “specific and saturable binding” value ([7]; fractions enriched in P2, P3, or S3) of the same compound?
Its value is “No specific and saturable binding”.

And the Bmax (BxPC-3 nuclear fraction)?
Its Bmax is 25.5 ± 9.7 fmol/mg.

And the Bmax (Capan-1 nuclear fraction)?
The Bmax was 22.7 ± 9.5 fmol/mg.

What about the Bmax [8] of the same compound?
The Bmax was 11.9 ± 1.5 fmol/mg.

And the Bmax [9]?
Its Bmax is 4.2±1.1 fmol/mg protein.

And the binding recorded ([10]; 3 further specimens)?
The binding recorded was “non-specific and non-saturable binding”.

And the Bmax ([10]; specimens from 3 patients)?
Its Bmax is 6.6±1.2 fmol/mg protein.

And the “Binding capacity (Bmax)” value ([11]; neoplastic specimens)?
The value was 13.6±1.9 fmol/mg protein.

And the “Bmax of neoplastic specimens less than normal epithelium” value ([11]; p<0.01)?
Its value is 6 fold.

What about the “Binding capacity (Bmax)” value [12] of the same compound?
Its value is 80.8±32.8 fmol/mg protein.

What about the Bmax (normal human pancreas) of the same compound?
Its Bmax is 46.7±27.8 fmol/mg protein.

With “5′-GGTCGTCCATGCTCGGCTAGAAT-3′ (DNA, all phosphorothioate, methylation of C not given here) [antisense S-ODN (SEQ ID NO: 17)]” as the compound, how does the “elevation of cell number from control cultures” value ([3]; 48 hr of exposure) read?
Its value is 60%.
